Test results reported in article PMC10786919, “Design-rules for stapled peptides with in vivo activity and their application to Mdm2/X antagonists” (Nature Communications, 2024).
Values after ≈ are worked out from the molar mass of the structure shown. Like-named read-outs stand apart in the source and are kept apart here. Positions of bridges follow the written chain, without caps; N, C: chain ends. Non-standard residues stand in square brackets, D forms with d. Residues, ends and D or L forms follow the SMILES beside them. 2Nal = N[C@@H](Cc1ccc2ccccc2c1)C(=O)O; R8 = C=CCCCCCC[C@@](C)(N)C(=O)O; S5 = C=CCCC[C@](C)(N)C(=O)O

Tests used:
[1] = system: Jump-In T-REx CHO-K1 BLA cells; test: cells; assay type: cell-based; settings: for EC50: read-out: TETCHO: Counterscreen EC50
[2] = Solubility assay (kinetic solubility, PBS pH 7); assay type: physicochemical; settings: pH 7, PBS; for solubility kinetic: pH 7, aqueous buffer, kinetic from dmso stock, read-out: Solubility
How it was run: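 Values derive from peak-area ratios of sample versus a 100 µM standard, scaled by that standard's concentration.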

human Mdm2 1–125 = target: T1, human Mdm2 1–125 (Homo sapiens, UniProt Q00987); test: Mdm2 binding by competitive fluorescence anisotropy assay (FP binding); settings: read-out: FP binding assay KD
T1 construct: GST (N); His6 (internal); TEV cleavage site (ENLYFQG) (internal); made in house; host or cells: BL21 (DE3) Rosetta T1R Escherichia coli
Excerpt: The TEV (tobacco etch virus) cleavage site was changed from ENLYFQS to ENLYFQG to give a fusion protein with the following sequence:
[P] is the protein concentration (Mdm2), [L] is the labeled peptide concentration, r is the anisotropy measured, r0 is the anisotropy of the free peptide, rb is the anisotropy of the Mdm2–FAM-labeled peptide complex, Kd is the dissociation constant, [L]t is the total FAM labeled peptide concentration, and [P]t is the total Mdm2 concentration. […] This value was then used to determine apparent Kd values of the respective competing ligands in subsequent competition assays in fluorescence anisotropy experiments.
The competing molecules were then titrated against the complex of the FAM-labeled peptide and protein. Apparent Kd values were determined by fitting the experimental data to equations shown below:2 r=ro+(rb−ro)×2(d^2−3e)cos(θ/3)−9/3Kd1+2(d^2−3e)cos(θ/3)−d 3 d=Kd1+Kd2+[L]st+[L]t−Pt 4 e=Lt−PtKd1+Lst+PtKd2+Kd1Kd2 5 f=−Kd1Kd2[P]t 6 θ=arcos−2d^3+9de−27f/2(d^2−3e)^3
[L]st and [L]t denote labeled ligand and total unlabeled ligand input concentrations, respectively. Kd2 is the dissociation constant of the interaction between the unlabeled ligand and the protein. In all competition experiments, it is assumed that [P]t > [L]st, otherwise considerable amounts of free labeled ligand would always be present and would interfere with measurements. […] The FAM-labeled peptide was dissolved in dimethyl sulfoxide (DMSO) at 1 mM and diluted into experimental buffer. Readings were carried out with an Envision Multilabel Reader (PerkinElmer). […] Curve-fitting was carried out using Prism 4.0 (GraphPad). […] Negative control titrations of the ligands under investigation were also carried out with the fluorescently labeled peptide (in the absence of Mdm2) to ensure no interactions were occurring between the ligands and the FAM-labeled peptide. […] Measurements were taken a minimum of three times (biological replicates) and values are reported as geometric means of the replicates.

EPSA = assay type: physicochemical
[3] = system: p53 responsive β-lactamase reporter in HCT116 cells; test: cells; assay type: cell-based
How it was run: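 Read-out used the ToxBLAzer Dual Screen for β-lactamase driven by a stably integrated p53-responsive reporter. Assay: 8000 HCT116 cells per well at 0.5% final DMSO. Reported numbers are geometric means over a minimum of three biological replicates.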

[4] = Experimental LogD (partition coefficient); settings: for logD: not stated, Partition Coeff LogD
HCT116 cells = test: Lactate dehydrogenase (LDH) release assay; assay type: cell-based
How it was run: (§1)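 Geometric means of at least three independent biological runs are given for LDH release measured in HCT116 cells stably expressing a p53-driven β-lactamase reporter. Plating density was 8000 cells/well; DMSO in wells was 0.5%.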

[5] = Lactate dehydrogenase (LDH) release assay; assay type: cell-based
How it was run: as §1

[6] = 0% FBS 4Hr, read-out: p53 reporter assay: EC50
[7] = 0% FBS 4Hr, read-out: p53 reporter assay EC50

T1 sequence (Q00987 with tags, fused parts or gaps): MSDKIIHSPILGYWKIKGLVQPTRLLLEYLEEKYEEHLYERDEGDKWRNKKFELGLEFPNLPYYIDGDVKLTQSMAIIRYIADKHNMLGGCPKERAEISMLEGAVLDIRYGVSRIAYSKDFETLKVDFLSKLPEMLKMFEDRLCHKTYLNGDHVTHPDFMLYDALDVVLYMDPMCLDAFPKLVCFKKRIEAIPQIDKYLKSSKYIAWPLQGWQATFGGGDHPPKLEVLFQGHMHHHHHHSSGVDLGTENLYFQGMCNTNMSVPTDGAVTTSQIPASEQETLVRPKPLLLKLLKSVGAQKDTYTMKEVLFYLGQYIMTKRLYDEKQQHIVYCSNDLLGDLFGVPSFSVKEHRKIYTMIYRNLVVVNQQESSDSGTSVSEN

SMILES: CC(=O)N[C@@H](CC(C)C)C(=O)N[C@H](C(=O)N[C@@H](Cc1ccccc1)C(=O)N[C@]1(C)CCCCCCC=CCCC[C@@](C)(C(=O)N[C@@H](CO)C(=O)N[C@@H](C)C(=O)N[C@@H](C)C(N)=O)NC(=O)[C@H](CC(C)C)NC(=O)[C@H](CCC(N)=O)NC(=O)[C@H](C)NC(=O)[C@H](Cc2c[nH]c3ccccc23)NC(=O)[C@H](Cc2ccc(O)cc2)NC(=O)[C@H](CCC(=O)O)NC1=O)[C@@H](C)O [MP-211]
- TETCHO: Counterscreen % Effect ([1]; 0% FBS 4Hr): 40.04%
- EC50 ([1]; 0% FBS 4Hr): 48.5 µM
- TETCHO: Counterscreen % Effect ([1]; 0% FBS 16Hr): 114.5%
- EC50 ([1]; 0% FBS 16Hr): 25.2 µM
- Solubility [2]: 177
- Kd (human Mdm2 1–125): 0.0678 µM
- EPSA (EPSA): 201
- p53 reporter assay: % Effect ([3]; 0% FBS 4Hr): 96.16%
- EC50 [3, 6]: 0.731 µM
- p53 reporter assay: % Effect ([3]; 0% FBS 16Hr): 100.4%
- EC50 ([3]; 0% FBS 16Hr, read-out: p53 reporter assay: EC50): 1.48 µM
- Partition Coeff LogD [4]: 2.82

SMILES: CC(=O)N[C@@H](CCCCN)C(=O)NCCCCCC(=O)N[C@H](C(=O)N[C@@H](CO)C(=O)N[C@@H](Cc1ccccc1)C(=O)N[C@]1(C)CCCCCCC=CCCC[C@@](C)(C(=O)N[C@@H](CCC(=O)O)C(=O)N[C@@H](CC(N)=O)C(=O)N[C@@H](Cc2ccccc2)C(N)=O)NC(=O)[C@H](CC(C)C)NC(=O)[C@H](CC(C)C)NC(=O)[C@H](C)NC(=O)[C@H](Cc2c[nH]c3ccccc23)NC(=O)[C@H](Cc2ccc(O)cc2)NC(=O)[C@H](CCC(=O)O)NC1=O)[C@@H](C)O [MP-6210]
- TETCHO: Counterscreen % Effect ([1]; 0% FBS 4Hr): 57.09%
- EC50 ([1]; 0% FBS 4Hr): 44 µM
- LDH: Cytotoxicity assay: % Effect (HCT116 cells): 13.27%
- EC50 ([5]; LDH: Cytotoxicity assay: EC50): > 50.7 µM
- solubility kinetic [2]: 74 µM (≈ 155 µg/mL)
- Kd (human Mdm2 1–125): 0.0674 µM
- EPSA (EPSA; EPSA): 255 A^2
- p53 reporter assay: % Effect ([3]; 0% FBS 4Hr): 115.9%
- EC50 [3, 6]: 7.41 µM
- logD [4]: 2.55

SMILES: CC(=O)N[C@H](C(=O)N[C@@H](CO)C(=O)N[C@@H](Cc1ccccc1)C(=O)N[C@]1(C)CCCCCCC=CCCC[C@@](C)(C(N)=O)NC(=O)[C@H](CC(C)C)NC(=O)[C@H](CC(C)C)NC(=O)[C@H](C)NC(=O)[C@H](Cc2c[nH]c3ccccc23)NC(=O)[C@H](Cc2ccc(O)cc2)NC(=O)[C@H](Cc2c[nH]cn2)NC1=O)[C@@H](C)O [MP-138] (Ac-TSF[R8]HYWALL[S5]-NH2; staple 4-11)
- TETCHO: Counterscreen % Effect ([1]; 0% FBS 4Hr): 24.03%
- EC50 ([1]; 0% FBS 4Hr): > 50 µM
- LDH: Cytotoxicity assay % Effect (HCT116 cells): 0.2053%
- EC50 ([5]; LDH: Cytotoxicity assay EC50): > 50 µM
- Kd (human Mdm2 1–125): 0.0879 µM
- EC50 [3, 7]: 4.9 µM

SMILES: CC(=O)N[C@@H](CCCCN)C(=O)N[C@@H](CCCCN)C(=O)N[C@H](C(=O)N[C@@H](CO)C(=O)N[C@@H](Cc1ccccc1)C(=O)N[C@]1(C)CCCCCCC=CCCC[C@@](C)(C(N)=O)NC(=O)[C@H](CC(C)C)NC(=O)[C@H](CC(C)C)NC(=O)[C@H](C)NC(=O)[C@H](Cc2c[nH]c3ccccc23)NC(=O)[C@H](Cc2ccc(O)cc2)NC(=O)[C@H](CCC(=O)O)NC1=O)[C@@H](C)O [MP-142]
- TETCHO: Counterscreen % Effect ([1]; 0% FBS 4Hr): 22.09%
- EC50 ([1]; 0% FBS 4Hr): 20.2 µM
- LDH: Cytotoxicity assay % Effect (HCT116 cells): 72.79%
- EC50 ([5]; LDH: Cytotoxicity assay EC50): 46.7 µM
- Kd (human Mdm2 1–125): 0.0422 µM
- EC50 [3, 7]: 15.2 µM

SMILES: CC(C)C[C@@H]1NC(=O)[C@H](C)NC(=O)[C@H](Cc2c[nH]c3ccccc23)NC(=O)[C@H](Cc2ccc(O)cc2)NC(=O)[C@H](CCC(=O)O)NC(=O)[C@](C)(NC(=O)[C@H](Cc2ccccc2)NC(=O)[C@H](CO)NC(=O)[C@@H](NC(=O)[C@H](CO)NC(=O)CNC(=O)[C@@H](N)CO)[C@@H](C)O)CCCCCCC=CCCC[C@@](C)(C(N)=O)NC(=O)[C@H](CC(C)C)NC1=O [MP-132]
- TETCHO: Counterscreen % Effect ([1]; 0% FBS 4Hr): 9.469%
- EC50 ([1]; 0% FBS 4Hr): > 50 µM
- LDH: Cytotoxicity assay % Effect (HCT116 cells): 1.056%
- EC50 ([5]; LDH: Cytotoxicity assay EC50): > 50 µM
- Kd (human Mdm2 1–125): 0.0459 µM
- EC50 [3, 7]: 39.6 µM

SMILES: CC(=O)N[C@H](C(=O)N[C@@H](CO)C(=O)N[C@@H](Cc1ccccc1)C(=O)NC(C)(C)C(=O)N[C@@H](CCC(=O)O)C(=O)N[C@@H](Cc1ccc(O)cc1)C(=O)N[C@@H](Cc1c[nH]c2ccccc12)C(=O)N[C@@H](C)C(=O)N[C@@H](CC(C)C)C(=O)N[C@@H](CC(C)C)C(=O)NC(C)(C)C(N)=O)[C@@H](C)O [MP-153]
- TETCHO: Counterscreen % Effect ([1]; 0% FBS 4Hr): 16.18%
- EC50 ([1]; 0% FBS 4Hr): > 50 µM
- LDH: Cytotoxicity assay % Effect (HCT116 cells): 0.7534%
- EC50 ([5]; LDH: Cytotoxicity assay EC50): > 50 µM
- Kd (human Mdm2 1–125): 0.133 µM
- EC50 [3, 7]: 34.2 µM

SMILES: CC(=O)N[C@@H](CC(C)C)C(=O)N[C@H](C(=O)N[C@@H](Cc1ccccc1)C(=O)N[C@]1(C)CCCCCCC=CCCC[C@@](C)(C(=O)N[C@@H](CO)C(=O)N[C@@H](C)C(=O)N[C@@H](C)C(N)=O)NC(=O)[C@H](CC(C)C)NC(=O)[C@H](CCC(N)=O)NC(=O)[C@H](C)NC(=O)[C@H](Cc2c[nH]c3ccccc23)NC(=O)[C@H](Cc2ccc(O)cc2)NC(=O)[C@H](CCC(=O)O)NC1=O)[C@@H](C)O [MP-154]
- TETCHO: Counterscreen % Effect ([1]; 0% FBS 4Hr): 205.4%
- EC50 ([1]; 0% FBS 4Hr): 27.1 µM
- LDH: Cytotoxicity assay: % Effect (HCT116 cells): 34.9%
- EC50 ([5]; LDH: Cytotoxicity assay: EC50): > 50.7 µM
- solubility kinetic [2]: 146 µM (≈ 254 µg/mL)
- Kd (human Mdm2 1–125): 0.0444 µM
- EPSA (EPSA; EPSA): 199 A^2
- p53 reporter assay: % Effect ([3]; 0% FBS 4Hr): 150.7%
- EC50 [3, 6]: 0.417 µM
- logD [4]: 2.87

SMILES: CC(=O)N[C@H](C(=O)N[C@@H](CO)C(=O)N[C@@H](Cc1ccccc1)C(=O)N[C@]1(C)CCCCCCC=CCCC[C@@](C)(C(=O)N[C@@H](CO)C(=O)N[C@@H](C)C(=O)N[C@@H](C)C(=O)N[C@@H](CCC(=O)O)C(N)=O)NC(=O)[C@H](CC(C)C)NC(=O)[C@H](CC(C)C)NC(=O)[C@H](C)NC(=O)[C@H](Cc2c[nH]c3ccccc23)NC(=O)[C@H](Cc2ccc(O)cc2)NC(=O)[C@H](CCC(=O)O)NC1=O)[C@@H](C)O [MP-141]
- TETCHO: Counterscreen % Effect ([1]; 0% FBS 4Hr): 2.385%
- EC50 ([1]; 0% FBS 4Hr): > 50 µM
- LDH: Cytotoxicity assay % Effect (HCT116 cells): 8.71%
- EC50 ([5]; LDH: Cytotoxicity assay EC50): > 50 µM
- Kd (human Mdm2 1–125): < 0.001 µM
- EC50 [3, 7]: 5.36 µM

SMILES: CC(=O)N[C@H](C(=O)N[C@@H](CO)C(=O)N[C@@H](Cc1ccc2ccccc2c1)C(=O)N[C@]1(C)CCCCCCC=CCCC[C@@](C)(C(=O)N[C@@H](CO)C(=O)N[C@@H](C)C(=O)N[C@@H](C)C(=O)N[C@@H](CCC(=O)O)C(N)=O)NC(=O)[C@H](CC(C)C)NC(=O)[C@H](CC(C)C)NC(=O)[C@H](C)NC(=O)[C@H](Cc2c[nH]c3ccccc23)NC(=O)[C@H](Cc2ccc(O)cc2)NC(=O)[C@H](CCC(=O)O)NC1=O)[C@@H](C)O [MP-144] (Ac-TS[2Nal][R8]EYWALL[S5]SAAE-NH2; staple 4-11)
- TETCHO: Counterscreen % Effect ([1]; 0% FBS 4Hr): -3.58%
- EC50 ([1]; 0% FBS 4Hr): > 50 µM
- LDH: Cytotoxicity assay % Effect (HCT116 cells): 83.26%
- EC50 ([5]; LDH: Cytotoxicity assay EC50): 15.6 µM
- Kd (human Mdm2 1–125): 46.7 µM
- EC50 [3, 7]: 5.01 µM
